Assay results reported in PMC6199744, “Development of Chemical Proteomics for the Folateome and Analysis of the Kinetoplastid Folateome” (ACS Infectious Diseases, 2018).
Read-outs that look alike come from different tables or passages of the source.

Assays:
Format in all cases: binding
[1] = biological target: T1, HeLa cell extract proteins (Homo sapiens, UniProt P29401)
T1 construct: endogenous in cells; host or cells: HeLa cell extract
T1 sequence (P29401 1-623): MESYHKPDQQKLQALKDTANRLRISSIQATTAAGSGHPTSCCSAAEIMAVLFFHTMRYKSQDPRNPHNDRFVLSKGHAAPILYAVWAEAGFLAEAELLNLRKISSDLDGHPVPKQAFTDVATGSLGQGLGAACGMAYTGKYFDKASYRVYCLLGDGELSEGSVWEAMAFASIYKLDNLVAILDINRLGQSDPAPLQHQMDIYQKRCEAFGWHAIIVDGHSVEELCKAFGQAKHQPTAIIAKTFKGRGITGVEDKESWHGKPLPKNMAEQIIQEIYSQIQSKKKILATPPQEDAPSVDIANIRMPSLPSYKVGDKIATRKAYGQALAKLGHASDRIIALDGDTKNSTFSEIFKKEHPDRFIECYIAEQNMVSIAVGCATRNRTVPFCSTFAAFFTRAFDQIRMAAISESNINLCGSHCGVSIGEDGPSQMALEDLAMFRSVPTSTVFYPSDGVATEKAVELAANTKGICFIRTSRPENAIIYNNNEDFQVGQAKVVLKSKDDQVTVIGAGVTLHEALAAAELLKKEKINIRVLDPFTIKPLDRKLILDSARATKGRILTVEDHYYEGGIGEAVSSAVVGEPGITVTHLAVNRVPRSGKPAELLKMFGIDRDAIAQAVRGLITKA

[2] = biological target: T2, HeLa cell extract proteins (Homo sapiens, UniProt O00764)
T2 construct: endogenous in cells; host or cells: HeLa cell extract
T2 sequence (O00764 1-312): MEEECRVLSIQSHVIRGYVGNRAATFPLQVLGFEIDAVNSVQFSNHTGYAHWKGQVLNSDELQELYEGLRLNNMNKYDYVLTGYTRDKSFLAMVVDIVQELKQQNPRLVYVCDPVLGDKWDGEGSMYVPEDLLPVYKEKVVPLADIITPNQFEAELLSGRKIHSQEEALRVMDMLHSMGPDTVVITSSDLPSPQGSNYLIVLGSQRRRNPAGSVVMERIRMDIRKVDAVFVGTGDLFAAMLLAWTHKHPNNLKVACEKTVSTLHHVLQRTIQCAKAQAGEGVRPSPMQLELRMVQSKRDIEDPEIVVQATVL

[3] = biological target: T3, HeLa cell extract proteins (Homo sapiens, UniProt P57678)
T3 construct: endogenous in cells; host or cells: HeLa cell extract
T3 sequence (P57678 1-1058): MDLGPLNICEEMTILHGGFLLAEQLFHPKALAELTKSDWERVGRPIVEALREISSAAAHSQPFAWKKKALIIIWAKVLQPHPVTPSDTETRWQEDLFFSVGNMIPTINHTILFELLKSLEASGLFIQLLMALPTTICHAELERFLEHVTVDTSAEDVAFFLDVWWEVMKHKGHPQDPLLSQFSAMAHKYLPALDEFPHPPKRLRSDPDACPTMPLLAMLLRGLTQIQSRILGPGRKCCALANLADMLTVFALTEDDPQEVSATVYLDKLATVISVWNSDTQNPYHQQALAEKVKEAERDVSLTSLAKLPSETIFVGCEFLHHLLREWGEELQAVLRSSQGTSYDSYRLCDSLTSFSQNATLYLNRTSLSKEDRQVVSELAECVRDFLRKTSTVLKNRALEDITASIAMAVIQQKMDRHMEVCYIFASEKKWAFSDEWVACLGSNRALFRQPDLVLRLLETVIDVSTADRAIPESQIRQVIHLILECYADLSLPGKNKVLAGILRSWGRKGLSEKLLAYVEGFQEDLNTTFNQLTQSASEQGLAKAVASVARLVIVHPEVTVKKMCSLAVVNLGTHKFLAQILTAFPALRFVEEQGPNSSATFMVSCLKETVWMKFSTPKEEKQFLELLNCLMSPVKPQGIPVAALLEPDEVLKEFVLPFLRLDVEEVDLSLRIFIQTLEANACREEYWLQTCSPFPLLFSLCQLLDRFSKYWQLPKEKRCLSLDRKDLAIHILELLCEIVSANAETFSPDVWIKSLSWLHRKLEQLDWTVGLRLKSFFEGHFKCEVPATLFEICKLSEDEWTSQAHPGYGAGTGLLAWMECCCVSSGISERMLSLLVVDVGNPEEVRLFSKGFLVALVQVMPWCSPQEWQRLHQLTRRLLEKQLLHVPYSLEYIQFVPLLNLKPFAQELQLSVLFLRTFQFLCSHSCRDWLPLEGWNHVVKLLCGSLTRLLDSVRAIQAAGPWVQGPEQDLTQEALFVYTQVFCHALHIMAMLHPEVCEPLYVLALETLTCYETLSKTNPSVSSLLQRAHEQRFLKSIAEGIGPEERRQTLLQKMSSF

[4] = biological target: T4, HeLa cell extract proteins (Homo sapiens, UniProt Q96LA8)
T4 construct: endogenous in cells; host or cells: HeLa cell extract
T4 sequence (Q96LA8 whole entry): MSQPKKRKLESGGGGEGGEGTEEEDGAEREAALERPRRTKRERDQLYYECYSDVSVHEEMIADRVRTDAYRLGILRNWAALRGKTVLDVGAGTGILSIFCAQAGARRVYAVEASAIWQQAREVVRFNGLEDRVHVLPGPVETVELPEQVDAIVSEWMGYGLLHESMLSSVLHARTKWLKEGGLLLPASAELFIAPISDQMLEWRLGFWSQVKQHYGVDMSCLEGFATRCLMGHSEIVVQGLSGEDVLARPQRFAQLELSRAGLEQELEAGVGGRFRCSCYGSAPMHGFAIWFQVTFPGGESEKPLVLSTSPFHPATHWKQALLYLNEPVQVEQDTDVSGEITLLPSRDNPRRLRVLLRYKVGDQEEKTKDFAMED

[5] = biological target: T5, HeLa cell extract proteins (Homo sapiens, UniProt P30041)
T5 construct: endogenous in cells; host or cells: HeLa cell extract
T5 sequence (P30041 1-224): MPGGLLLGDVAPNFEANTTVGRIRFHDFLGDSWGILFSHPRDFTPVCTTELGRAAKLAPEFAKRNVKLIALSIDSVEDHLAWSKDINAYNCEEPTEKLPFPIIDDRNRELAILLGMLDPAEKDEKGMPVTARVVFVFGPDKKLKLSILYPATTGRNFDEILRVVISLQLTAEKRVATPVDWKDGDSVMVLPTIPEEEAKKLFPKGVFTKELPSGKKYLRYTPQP

[6] = biological target: T6, HeLa cell extract proteins (Homo sapiens, UniProt Q9Y262)
T6 construct: endogenous in cells; host or cells: HeLa cell extract
T6 sequence (Q9Y262 whole entry): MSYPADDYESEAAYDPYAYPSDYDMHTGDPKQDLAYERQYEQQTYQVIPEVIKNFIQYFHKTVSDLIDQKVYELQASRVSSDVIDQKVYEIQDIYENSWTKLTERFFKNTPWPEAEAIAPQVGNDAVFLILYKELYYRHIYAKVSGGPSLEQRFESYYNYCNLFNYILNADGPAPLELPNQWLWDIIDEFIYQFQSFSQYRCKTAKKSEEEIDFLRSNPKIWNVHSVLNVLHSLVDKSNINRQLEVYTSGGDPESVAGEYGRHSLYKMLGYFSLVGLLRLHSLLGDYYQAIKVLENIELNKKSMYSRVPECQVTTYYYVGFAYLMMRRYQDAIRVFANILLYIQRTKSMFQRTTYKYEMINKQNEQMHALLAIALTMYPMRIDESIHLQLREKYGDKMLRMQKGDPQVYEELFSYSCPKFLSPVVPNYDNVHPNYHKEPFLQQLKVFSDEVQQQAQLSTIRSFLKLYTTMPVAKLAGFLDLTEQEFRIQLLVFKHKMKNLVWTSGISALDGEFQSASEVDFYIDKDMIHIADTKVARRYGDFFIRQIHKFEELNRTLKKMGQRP

[7] = HeLa, protein PRMT6 (PROTEIN ARGININE N-METHYLTRANSFERASE 6)
[8] = HeLa, protein PRDX6 (PEROXIREDOXIN-6.)

For Nc1nc2c(c(=O)[nH]1)N(C=O)C(CNc1ccc(C(=O)N[C@@H](CCC(=O)O)C(=O)O)cc1)CN2 (stereo partly drawn) [LEU, leucovorin], the “fold changes relative to vehicle control” value ([1]; HeLa, protein TKT) was 1.12, the “fold changes relative to vehicle control” value ([2]; protein PDXK, HeLa) was 1.09 and the “fold changes relative to vehicle control” value ([3]; HeLa, protein GEMIN4) was 0.93. The “fold changes relative to vehicle control” value [4, 7] was 1.17, the “fold changes relative to vehicle control” value ([5]; HeLa, protein PRDX6) was 1.05 and the “fold changes relative to vehicle control” value ([6]; HeLa, captured protein EIF3L) was 1.

With Nc1nc2[nH]cc(CCc3ccc(C(=O)N[C@@H](CCC(=O)O)C(=O)O)cc3)c2c(=O)[nH]1 [PTX, pemetrexed] the “fold changes relative to vehicle control” value [1] was 1.2, the “fold changes relative to vehicle control” value [2] was 0.83 and the “fold changes relative to vehicle control” value [3] was 0.94. The “fold changes relative to vehicle control” value [4] was 1.03, the “fold changes relative to vehicle control” value [5] was 1.21 and the “fold changes relative to vehicle control” value [6] was 0.91.

With CCCCCCOc1ccc(Cc2cnc(N)nc2N)cc1 [compound 1] the “fold changes relative to vehicle control” value ([1]; protein TKT, HeLa) was 1.41, the “fold changes relative to vehicle control” value ([2]; HeLa, protein PDXK) was 1.03 and the “fold changes relative to vehicle control” value ([3]; captured protein GEMIN4, HeLa) was 0.88. For the same compound, the “fold changes relative to vehicle control” value ([4]; protein PRMT6, HeLa) was 1.01, the “fold changes relative to vehicle control” value [5, 8] was 1.45 fold and the “fold changes relative to vehicle control” value ([6]; protein EIF3L, HeLa) was 1.05.

For CCCCCCOc1cccc(Cc2cnc(N)nc2N)c1 [compound 2], the “fold changes relative to vehicle control” value ([1]; protein TKT, HeLa) was 2.08, the “fold changes relative to vehicle control” value ([2]; HeLa, protein PDXK) was 0.97 and the “fold changes relative to vehicle control” value ([3]; captured protein GEMIN4, HeLa) was 0.92. The “fold changes relative to vehicle control” value ([4]; protein PRMT6, HeLa) was 0.89, the “fold changes relative to vehicle control” value [5, 8] was 2.27 fold and the “fold changes relative to vehicle control” value ([6]; protein EIF3L, HeLa) was 1.25.

With Nc1nc2cccc(-c3ccccc3)c2n1Cc1ccc(Cl)c(Cl)c1 [compound 3] the “fold changes relative to vehicle control” value ([1]; protein TKT, HeLa) was 0.9, the “fold changes relative to vehicle control” value ([2]; HeLa, protein PDXK) was 0.9 and the “fold changes relative to vehicle control” value ([3]; captured protein GEMIN4, HeLa) was 1.02. The “fold changes relative to vehicle control” value ([4]; protein PRMT6, HeLa) was 0.93, the “fold changes relative to vehicle control” value [5, 8] was 0.92 fold and the “fold changes relative to vehicle control” value ([6]; protein EIF3L, HeLa) was 1.09.

NCCOCCOCC(=O)Nc1nc2ncc(CNc3ccc(C(=O)NC(CCC(=O)O)C(=O)O)cc3)nc2c(=O)[nH]1 (stereo not drawn) [compound 6] was tested, and the “fold changes relative to vehicle control” value ([1]; HeLa, protein TKT) was 1.26, the “fold changes relative to vehicle control” value ([2]; protein PDXK, HeLa) was 0.87 and the “fold changes relative to vehicle control” value ([3]; HeLa, protein GEMIN4) was 1.02. The “fold changes relative to vehicle control” value [4, 7] was 0.93, the “fold changes relative to vehicle control” value ([5]; HeLa, protein PRDX6) was 1.33 and the “fold changes relative to vehicle control” value ([6]; HeLa, captured protein EIF3L) was 1.07.

NCCCNc1ccc(C(=O)NC(CCC(=O)O)C(=O)O)cc1 (stereo not drawn) [compound 7] was tested, and the “fold changes relative to vehicle control” value ([1]; HeLa, protein TKT) was 0.99, the “fold changes relative to vehicle control” value ([2]; protein PDXK, HeLa) was 1.03 and the “fold changes relative to vehicle control” value ([3]; HeLa, protein GEMIN4) was 0.99. The “fold changes relative to vehicle control” value [4, 7] was 1.01, the “fold changes relative to vehicle control” value ([5]; HeLa, protein PRDX6) was 1.01 and the “fold changes relative to vehicle control” value ([6]; HeLa, captured protein EIF3L) was 0.93.
